Assay [1] relates to OC-1 cells. Put plainly: Seahorse bioenergetics experiment (oxygen consumption rate) after cisplatin. In kind it is cell-based. Here is the method:
Mitochondrial function was analysed by measuring oxygen consumption rate (OCR) using real-time Seahorse Flux Analyser XF 96 (Seahorse Bioscience, USA) with our well-established method (Kovacevic, Bozica, et al. “Novel hydrogel comprising non-ionic copolymer with various concentrations of pharmacologically active bile acids for cellular injectable gel.” Colloids and Surfaces B: Biointerfaces (2022): 113014). Briefly, the first injection was with media without glucose, with subsequent ATP synthase inhibitor oligomycin and FCCP (carbonyl cyanide-p-trifluoromethoxy phenylhydrazone) and the final injection was complex […] inhibitors Rotenone+antimycin A 77. The result was automatically generated and analysed by the wave software. The OC-1 cells were pre-treated with cisplatin at three different concentrations (20, 30 and 40 μM) for 24 or 48 hours to induce cytotoxicity prior to the seahorse bioenergetics assays.

The next assay deals with Caspase 3/9 protein. Briefly: Caspase assay. The format is cell-based. Particulars: OC-1 cells under stressful, toxic conditions (FIG. 31). Here is the method: The caspase assay was carried as per manufacturer's instructions (abcam, NSW, Australia), as described below.
• Collagen coated cover slip • Fixing agent: 4% paraformaldehyde • Permeabilization agent 0.5% of Tween 20 or trition-X 100 diluted in PBS • Blocking: 1% BSA in PBST may also be used. • PBST: 0.1% Tween 20 in PBS • Primary abs (1:500 in PBS) • Secondary abs (1:1000 in PBS) • Hoechst (Nuclear stain)
First day: Fixation, permeabilize, blocking and add a primary antibody to the cells, as described below:
• Start by aspirating culture medium from each well followed by fixation of the cells with 4% Using 4% paraformaldehyde in PBS pH 7.4 for 10 min at room temperature. (Add one ml in each well). • Shake a plate for a few seconds.
0.5% of Tween 20 or trition-X 100 diluted in PBS. […]
• Make coverslips ready to be mounted onto microscope slides. • Take a clean slide and dispense one drop of antifade mounting medium by slowly from the pipette into the slide. • Carefully remove a coverslip from the well and allow excess wash to drip off and place the cells face down onto the slide. • Clear fingernail polish can be used to seal the coverslip and prevent it from drying out. • Visualized slide under microscope. […]

For assay [2], the system named is OC-1 cells. Briefly: Cobalt chloride hypoxia assay. Particulars: cells pre-treated with CoCl2 at 100 μM for 24 hours, microscopic examination. The format is cell-based. On the procedure: This assay is used to determine whether an intervention can reverse hypoxic-induced cell death brought about by cobalt chloride. For this assay, cells are pre-treated with CoCl2 at 100 μM for 24 hours, followed by microscopic examination of cell morphology and viability.

Assay [3] relates to Neurodegenerated cells (perinatal tissue derived human stem cell model for Parkinson's disease). Briefly: Mitochondrial membrane potential by TMRE assay, Parkinson's disease model. In kind it is cell-based. Particulars: PD model; probucol 20 μM, SPQ 10 μM, HA-1 10 μM, L-Dopa 50 μM, 24 hours. Here is the method: (§1) Perinatal tissue derived human stem cell model for Parkinson's disease (PD) was prepared using proprietary protocols to test the effect of new drug entities. Drug treatment was for 24 hours in all the assays.
Dysfunctional mitochondria and alterations in the mitochondrial membrane potential promote neurodegeneration seen in Parkinson's disease. For assessing the changes in mitochondrial membrane potential, we used TMRE (tetramethylrhodamine ethyl ester) to quantify the changes in live cells by fluorimetry.
(§2) Neurodegenerated cells were incubated with probucol (20 μM), SPQ (10 μM), HA-1 (10 μM) and L-Dopa (50 μM) for 24 hours (p<0.05; *p<0.05, **p<0.001, ***p<0.0001, ns=non-significant, n=3).

For assay [4], the system named is Neurodegenerated cells (Parkinson's disease model). Briefly: Adenosine triphosphate (ATP) assay, Parkinson's disease model. The format is cell-based, human. Particulars: PD model; probucol 20 μM, SPQ 10 μM, HA-1 10 μM, L-Dopa 50 μM, 24 hours. On the procedure: as §1
Impaired energy metabolism and reduced ATP levels are common features of PD. Using the stem cell derived PD model, we measured ATP levels in drug treated (probucol, SPQ and HA-1 and L-Dopa) cells and compared with neurodegenerated (ND) cells.
as §2

The test system is the same in assay [5]. Briefly: Gene expression analysis by qRT-PCR for neuronal, dopaminergic and PD associated markers. The format is cell-based, human. Particulars: 24 hours drug treatment. On the procedure: as §1
Gene expression levels of mature neuronal marker (Synapsin I), dopaminergic markers (Nuclear receptor related 1 (Nurr1), Dopamine transporter (DAT) and Tyrosine hydroxylase (TH)), and PD associated marker (α-synuclein) were analysed to determine the effect of probucol, SPQ, HA-1 and L-Dopa.
(A) Synapsin I, (B) Nurr1, (C) DAT, (D) TH and (E) α-synuclein. (p<0.05; *p<0.05, **p<0.001, ***p<0.0001, n=3).

Assay [6] has the same test system. Put plainly: Immunocytochemical localization of PD specific and neuronal markers. The format is cell-based, human. Particulars: fluorescence micrographs. On the procedure: as §1
For further confirmation and protein localization of neuronal, dopaminergic and PD specific neurodegenerative markers, we performed immunolocalization for synapsin I, Nurr1, TH and α-synuclein respectively.
Fluorescence micrographs of synapsin 1 positive neuronal cells were obtained and the effects of probucol, SPQ and HA-1 on neurodegeneration model with L-Dopa as positive control were compared.
Fluorescence micrographs of Nurr1 positive dopaminergic neuronal cells were obtained and the effects of probucol, SPQ and HA-1 on neurodegeneration model with L-Dopa as positive control were compared.
Fluorescence micrographs of TH positive dopaminergic neuronal cells were obtained and the effects of probucol, SPQ and HA-1 on neurodegeneration model with L-Dopa as positive control were compared.
Fluorescence micrographs of α-synuclein immunolocalization were obtained and the effects of probucol, SPQ and HA-1 on neurodegeneration model with L-Dopa as positive control were compared.

For assay [7] the test system is unchanged. Briefly: ROS assay, Parkinson's disease model. In kind it is cell-based, human. Particulars: PD model. Here is the method:
as §1
(§3) Increase in oxidative stress associated with accumulation of α-synuclein plays a central role in disease progression. Nitric oxide enhances the aggregation of α-synuclein and accelerates disease progression. Increased oxidative stress and nitric oxide levels lead to apoptosis and evoke cytotoxic effects on neurons.

Assay [8] shares this test system. Briefly: Greiss (nitric oxide) assay, Parkinson's disease model. The format is cell-based, human. Particulars: PD model. Here is the method:
as §1, §3

For assay [9] the test system is unchanged. Briefly: Glutathione peroxidase / GSH activity, Parkinson's disease model. Particulars: PD model; vs neurodegeneration. In kind it is cell-based, human. On the procedure: as §1
Parkinson's disease-related increase in oxidative stress is associated with mitochondrial dysfunction and subsequent decrease in the levels of brain antioxidant glutathione (GSH).
(Statistical analysis: Results are expressed in mean±SD. One-way ANOVA followed by Dunnett's post hoc test was performed to compare all columns vs neurodegeneration (p<0.05; *p<0.05, **p<0.001, ***p<0.0001, ns=non-significant, n=3).)

Assay [10] has as its system Neurodegenerated cells (perinatal tissue derived human stem cell model for Alzheimer's disease). Briefly: Lactate dehydrogenase (LDH) assay, in vitro model of Alzheimer's disease. In kind it is cell-based. Particulars: probucol 20 μM, SPQ 10 μM, HA-1 10 μM, rivastigmine 2 μM, 24 hours; compared to ND cells. Here is the method: (§4) Perinatal tissue derived human stem cell model for Alzheimer's disease (AD) was prepared using proprietary protocols to test the effect of new drug entities. Drug treatment was for 24 h in all the assays.
LDH leakage is a well characterised marker of cellular membrane damage and increase in indicative of lactate deficit, is a hallmark of AD.

Assay [11] deals with Neurodegenerated cells (Alzheimer's disease model). Briefly: Mitochondrial membrane potential by TMRE assay, Alzheimer's disease model. In kind it is cell-based, human. Particulars: AD model; probucol 20 μM, SPQ 10 μM, HA-1 10 μM, rivastigmine 2 μM, 24 hours. On the procedure:
as §4
Aβ plaques are sources of toxicity that lead to severe structural and functional abnormalities in mitochondria in Alzheimer's disease. For assessing the changes in the electrophysiology and functional changes in the mitochondrial membrane potential, we used TMRE (tetramethylrhodamine ethyl ester) for quantifying changes in mitochondrial membrane potential in live cells by fluorimetry.

The test system is the same in assay [12]. Briefly: Gene expression analysis by qRT-PCR for neuronal, cholinergic and AD associated markers. In kind it is cell-based, human. Particulars: 24 h drug treatment. On the procedure:
as §4
For determining the expression of genes involved in AD specific neurodegeneration and neuronal markers, we analysed BACE and chAT (AD and cholinergic markers) and synapsin 1 and neuropilin (neuronal markers).
(In general: Real-time PCR tracks product formation cycle by cycle.)

Assay [13] has the same test system. Briefly: Immunocytochemical localization of AD specific and neuronal markers. In kind it is cell-based, human. Particulars: fluorescence micrographs. On the procedure:
as §4
For further confirmation and protein localization of the AD specific neurodegenerative markers and neuronal markers, we performed immunolocalization for BACE1 and synapsin respectively.
Fluorescence micrographs of BACE1 positive neuronal cells were obtained and the effects of probucol, SPQ and HA-1 on neurodegeneration model were compared. […] In the AD model, as expected BACE1 accumulation is clearly pronounced.
In the case of synapsin 1, a disruption in expression of synapsin protein in ND cells was observed.

Assay [14] shares this test system. Put plainly: ROS (reactive oxygen species) assay, Alzheimer's disease model. The format is cell-based, human. Particulars: AD model. Here is the method:
as §4
(§5) Increase in oxidative stress is associated with accumulation of amyloid beta seen in the AD model. Increased oxidative stress and nitric oxide levels lead to apoptosis and evoke cytotoxic effects on neurons.

Assay [15] shares this test system. Briefly: Greiss (nitric oxide) assay, Alzheimer's disease model. In kind it is cell-based, human. Particulars: AD model. Here is the method:
as §4, §5

The test system is the same in assay [16]. Put plainly: Glutathione peroxidase / GSH activity, Alzheimer's disease model. In kind it is cell-based, human. Particulars: AD model; vs neurodegeneration. On the procedure: as §4
Alzheimer's disease-related increase in oxidative stress is associated with decrease in the levels of brain antioxidant glutathione (GSH).
(Statistical analysis: results are expressed in mean±SD. One-way ANOVA followed by Dunnett's post hoc test was performed to compare all columns vs neurodegeneration (p<0.05; *p<0.05, **p<0.001, ***p<0.0001, ns=non-significant, n=3).)

Molecules are shown by their SMILES.

The source of these data is patent publication US20240374739A1, “BILE ACID CONJUGATE” (Curtin University, priority 2021, published 2024).

`CC(=O)O[C@@H]1CC[C@@]2(C)C(C1)C[C@@H](OC(C)=O)[C@H]1[C@@H]3CC[C@H]([C@H](C)CCC(=O)Oc4c(C(C)(C)C)cc(SC(C)(C)Sc5cc(C(C)(C)C)c(O)c(C(C)(C)C)c5)cc4C(C)(C)C)[C@@]3(C)CC[C@@H]12` (stereo in doubt) [HA-2, 2,6-di-tert-butyl-4-((2-((3,5-di-tert-butyl-4-hydroxyphenyl)thio)propan-2-yl)thio)phenyl (4R)-4-[(3R,5R,7R,8R,9S,10S,13R,14S,17R)-3,7-diacetoxy-10,13-dimethyl-2,3,4,5,6,7,8,9,11,12,14,15,16,17-tetradecahydro-1H-cyclopenta[a]phenanthren-17-yl]pentanoate]: the “oxygen consumption rate (OCR)” value in the assay with OC-1 cells [1] (OC-1 cells after 24 hours exposure to cisplatin (20, 30 and 40 μM)) is reported as “most potent in reversing the cisplatin-induced cytotoxicity”; with OC-1 cells [1] (OC-1 cells after 48 hours exposure to cisplatin (20, 30 and 40 μM)) it was “significantly reverse the cytotoxic effects of cisplatin”. In addition, in the assay with Caspase 3/9 protein, the “protection against programmed cell death (caspase-3 activation) / viable cell population” value is on record as “least amount of cell death”. Also, the cell morphology entry with OC-1 cells [2] is on record as “optimal morphology”.

As for `N[C@@H](Cc1ccc(O)c(O)c1)C(=O)O` [L-Dopa, Levodopa], in assay [3], the “mitochondrial membrane potential (TMRE)” value was “maintain the mitochondrial membrane potential”. In addition, in assay [4], the ATP level entry was “Enhanced increase in ATP levels”. Besides, the “TH gene expression (qRT-PCR)” value in assay [5] was “clearly upregulated”. Besides, the “accumulation of α-synuclein (immunolocalization)” value in assay [6] is “least expression”. Moreover, in [7], the “intracellular reactive oxidative stress (ROS)” value is “reduction of ROS and NO levels”. In addition, the nitric oxide level result in [8] is “reduction of ROS and NO levels”. The “glutathione (GSH) activity” value in [9] is “increase in the GSH activity”.

On to `CCN(C)C(=O)Oc1cccc([C@H](C)N(C)C)c1` [rivastigmine], for which the “LDH activity / LDH release” value in [10] is listed as “decreased significantly LDH activity”. Further, in [11], the “mitochondrial membrane potential (TMRE)” value is “maintain the mitochondrial membrane potential”. In addition, in assay [12], the “BACE1 gene expression (qRT-PCR)” value was “decrease the level of beta secretase 1 (BACE1)” and the “ChAT gene expression (qRT-PCR)” value was “increase the level of choline acetyltransferase (ChAT)”. Besides, the “accumulation of BACE1 protein (immunolocalization)” value in assay [13] was “least expression”. For the same compound, the “intracellular reactive oxidative stress (ROS)” value in [14] was “reduction of ROS and NO levels”. Moreover, the nitric oxide level result in assay [15] was “reduction of ROS and NO levels”. The “glutathione (GSH) activity” value in assay [16] is recorded as “increase in the anti-oxidant GSH activity”.
